Data from ChEMBL document CHEMBL1138020, “Novel fibrinogen receptor antagonists. RGDF mimetics, derivatives of 4-(isoindoline-5-yl)amino-4-oxobutyric acid” (Bioorg Med Chem Lett, 2004).

Tests used:
[1] = target: T1, Integrin alpha-IIb/beta-3 (Homo sapiens, UniProt P05106+P08514); test: In vitro binding affinity for FITC-labeled fibrinogen binding to alphaIIb-beta3 receptor of human platelets
[2] = target: T1, Integrin alpha-IIb/beta-3; test: In vitro inhibition of FITC-labeled fibrinogen binding to alphaIIb-beta3 receptor of human platelets
[3] = In vitro inhibition of Collagen-induced platelet aggregation in canine platelet rich plasma

T1 sequence (P05106 27-788 limits assumed): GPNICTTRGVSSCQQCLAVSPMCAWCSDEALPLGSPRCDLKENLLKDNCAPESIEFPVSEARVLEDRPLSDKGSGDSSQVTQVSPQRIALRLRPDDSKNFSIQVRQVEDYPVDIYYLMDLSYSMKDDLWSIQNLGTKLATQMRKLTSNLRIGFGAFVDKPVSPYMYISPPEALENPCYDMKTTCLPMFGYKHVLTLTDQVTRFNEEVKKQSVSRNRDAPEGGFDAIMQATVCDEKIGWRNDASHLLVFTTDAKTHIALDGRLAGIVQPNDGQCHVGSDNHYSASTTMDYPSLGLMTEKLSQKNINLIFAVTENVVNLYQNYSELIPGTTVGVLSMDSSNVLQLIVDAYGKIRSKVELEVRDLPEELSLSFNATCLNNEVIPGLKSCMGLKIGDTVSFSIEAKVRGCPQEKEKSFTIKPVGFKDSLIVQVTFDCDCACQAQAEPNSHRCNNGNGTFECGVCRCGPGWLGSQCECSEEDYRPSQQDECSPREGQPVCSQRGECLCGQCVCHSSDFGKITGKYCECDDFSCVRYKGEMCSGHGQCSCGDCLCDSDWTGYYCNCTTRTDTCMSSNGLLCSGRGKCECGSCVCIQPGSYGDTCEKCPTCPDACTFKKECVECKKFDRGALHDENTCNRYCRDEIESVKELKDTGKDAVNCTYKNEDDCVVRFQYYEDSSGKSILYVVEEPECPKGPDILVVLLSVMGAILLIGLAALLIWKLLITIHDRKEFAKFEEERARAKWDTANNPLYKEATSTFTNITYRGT
T1 sequence (P08514 32-887 limits assumed): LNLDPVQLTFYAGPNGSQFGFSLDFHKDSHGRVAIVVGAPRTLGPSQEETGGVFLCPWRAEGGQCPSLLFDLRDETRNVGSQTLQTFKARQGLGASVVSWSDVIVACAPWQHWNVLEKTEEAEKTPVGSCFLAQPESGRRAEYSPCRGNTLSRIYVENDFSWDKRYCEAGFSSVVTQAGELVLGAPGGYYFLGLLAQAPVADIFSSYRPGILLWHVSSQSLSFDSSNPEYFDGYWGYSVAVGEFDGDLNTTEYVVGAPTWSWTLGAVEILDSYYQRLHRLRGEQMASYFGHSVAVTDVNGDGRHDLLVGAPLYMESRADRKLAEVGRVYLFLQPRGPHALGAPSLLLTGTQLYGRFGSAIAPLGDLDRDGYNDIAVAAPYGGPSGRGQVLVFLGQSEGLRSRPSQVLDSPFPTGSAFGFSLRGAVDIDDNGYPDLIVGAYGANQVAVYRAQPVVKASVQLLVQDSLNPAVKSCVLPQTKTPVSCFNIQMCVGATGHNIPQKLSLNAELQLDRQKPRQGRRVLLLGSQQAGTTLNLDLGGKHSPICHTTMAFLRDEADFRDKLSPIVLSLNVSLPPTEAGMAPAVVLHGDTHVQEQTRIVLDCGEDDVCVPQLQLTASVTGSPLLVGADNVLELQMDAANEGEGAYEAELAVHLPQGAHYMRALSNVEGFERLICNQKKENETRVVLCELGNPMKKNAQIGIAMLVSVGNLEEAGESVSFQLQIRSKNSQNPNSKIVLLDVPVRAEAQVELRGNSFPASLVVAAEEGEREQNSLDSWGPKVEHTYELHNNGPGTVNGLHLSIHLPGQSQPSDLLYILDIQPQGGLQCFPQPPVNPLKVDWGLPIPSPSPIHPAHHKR
T1 sequence (P08514 891-1039 limits assumed): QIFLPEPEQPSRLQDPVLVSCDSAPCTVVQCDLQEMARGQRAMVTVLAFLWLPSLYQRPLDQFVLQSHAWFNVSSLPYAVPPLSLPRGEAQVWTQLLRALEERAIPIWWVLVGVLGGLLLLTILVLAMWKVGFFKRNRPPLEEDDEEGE

Row | Ki [1] | IC50 [2] | IC50 [3] | Compound
1 | 4.2 nM | 8.3 nM | – | O=C(O)CC(NC(=O)CCC(=O)Nc1ccc2c(c1)CNC2)c1ccccc1 (stereo unspecified)
2 | 7.1 nM | 10 nM | – | O=C(O)CCNC(=O)CCC(=O)Nc1ccc2c(c1)CNC2
3 | – | – | 1090 nM | N=C(N)c1ccc(NC(=O)CCC(=O)NCCC(=O)O)cc1
4 | – | – | 290 nM | N=C(N)c1ccc(NC(=O)CCC(=O)NC(CC(=O)O)c2ccccc2)cc1 (stereo unspecified)
